The experiment concerns Candida albicans 73/025. Description: Minimum inhibitory concentration test of cysteamine (Lynovex, NM001), CLSI M27-A3. The note with it: vulvovaginal isolate 73/025; RPMI-1640, 35° C., read at 24 h and 48 h. The format is cell-based. Here is the method:
The aim of the experiment was to determine the MIC of Lynovex (NM001) against vulvovaginal isolate Candida albicans 73/025. Plates were prepared which contain a serial doubling dilution of Lynovex (NM001) at 2× final concentration. The cultures were then prepared in 2×RPMI-1640, according to the CLSI M27-A3 protocol, and mixed in equal volumes in the plate resulting in 1×RPMI-1640, the concentration of compound mentioned below, and the CLSI standard inoculum for C. albicans. These were incubated at 35° C. and read at 24 h and 48 h on the BioTek plate reader.
• 1. Culture of Candida albicans grown overnight at 30° C. • 2. Culture removed from incubator. Add 2 ml sterile dH2O to the overnight culture and wash the cells from the surface of the agar. Cells placed in fresh bijou tube. • 3. Serial doubling dilution carried out and measured against same volume of MacFarland Standard • a. 100 μl culture added to well A1 of microtitre plate. • b. 100 μl sterile dH2O added to wells A2-A11. • c. 100 μl culture added to well A2 of microtitre plate and mixed well resulting in a 1 in 2 dilution. • d. 100 μl taken from A2 and added to A3 on plate and mixed well resulting in a 1 in 4 dilution. • e. This is continued to A11 where 100 μl is removed and discarded. • f. […] Plate read at OD530 on BioTek • h. […]
• 1. […] The plate is read in the BioTek at OD530. • 3. […]

The values below come from patent publication US20160102052A1, “Use of Cysteamine in Treating Infections caused by Yeasts/Moulds” (priority 2014, published 2016).

Regarding `NCCS` [NM001, cysteamine], the “growth of Candida albicans” value is listed as “inhibited the growth”.
